From patent US20250025443A1, “COMPOUNDS AND METHODS FOR TREATING CORONA VIRUSES” (CLEAR CREEK BIO, INC., priority 2021, published 2025) come the findings set out here.

For this test, the target named is SARS-CoV-2 Papain-Like Protease (PLpro) (Severe acute respiratory syndrome coronavirus 2 (2019-nCoV) (SARS-CoV-2), UniProt P0DTD1). In words: biochemical. The settings on record: SARS-CoV-2 PLpro enzymatic fluorescence assay; read-out: PLpro IC50.
Consider `Cc1cc2[nH]ccc2cc1C(=O)NC1(c2cccc3ccccc23)CC1` [Compound 223, 6-Methyl-N-(1-(naphthalen-1-yl)cyclopropyl)-1H-indole-5-carboxamide], for which the IC50 lay in the range of 0.1 to 1 µM. The same measure for `CON(C)C(=O)c1cc2cc(C)c(C(=O)NC3(c4cccc5ccccc45)CC3)cc2[nH]1` [Compound 225]: 0.1 to 1 µM; for `Cc1cc2cc(-c3ccccc3)[nH]c2cc1C(=O)NC1(c2cccc3ccccc23)CC1` [Compound 226, 5-Methyl-N-(1-(naphthalen-1-yl)cyclopropyl)-2-phenyl-1H-indole-6-carboxamide]: > 5 µM; for `Cc1cc2c(cc1C(=O)NC1(c3cccc4ccccc34)CC1)NCCC2` [Compound 227, 6-Methyl-N-(1-(naphthalen-1-yl)cyclopropyl)-1,2,3,4-tetrahydroquinoline-7-carboxamide]: 0.1 to 1 µM. The same measure for `Cc1cc2cc(CNCc3ccccc3)[nH]c2cc1C(=O)NC1(c2cccc3ccccc23)CC1` [Compound 229, 2-((Benzylamino)methyl)-5-methyl-N-(1-(naphthalen-1-yl)cyclopropyl)-1H-indole-6-carboxamide]: < 0.1 µM; for `CNCC1Cc2cc(C)c(C(=O)NC3(c4cccc5ccccc45)CC3)cc2N1` (centres unmarked) [Compound 231, 5-Methyl-2-((methylamino)methyl)-N-(1-(naphthalen-1-yl)cyclopropyl)indoline-6-carboxamide]: < 0.1 µM. Consider `Cc1cc2cc(CN)[nH]c2cc1C(=O)NC1(c2cccc(Br)c2)CC1` [Compound 232, 2-(Aminomethyl)-N-(1-(3-bromophenyl)cyclopropyl)-5-methyl-1H-indole-6-carboxamide], for which the IC50 was 1 to 5 µM. The same measure for `CNCCOc1ccc(C)c(C(=O)NC2(c3cccc4ccccc34)CC2)c1` [Compound 233, 2-Methyl-5-(2-(methylamino)ethoxy)-N-(1-(naphthalen-1-yl)cyclopropyl)benzamide]: < 0.1 µM; for `Cc1cc2cc(-c3ccccn3)[nH]c2cc1C(=O)NC1(c2cccc3ccccc23)CC1` [Compound 234, 5-Methyl-N-(1-(naphthalen-1-yl)cyclopropyl)-2-(pyridin-2-yl)-1H-indole-6-carboxamide]: 0.1 to 1 µM; for `Cc1cc2cc(CN)oc2cc1C(=O)NC1(c2cccc3ccccc23)CC1` [Compound 236]: 0.1 to 1 µM. Consider `Cc1cc2c(cc1C(=O)NC1(c3cccc4ccccc34)CC1)n(C)c(=O)n2C` [Compound 237, 1,3,6-Trimethyl-N-(1-(naphthalen-1-yl)cyclopropyl)-2-oxo-2,3-dihydro-1H-benzo[d]imidazole-5-carboxamide], for which the IC50 lay within 1 to 5 µM. The same measure for `Cc1cc2[nH]c(=O)[nH]c2cc1C(=O)NC1(c2cccc3ccccc23)CC1` [Compound 238, 6-Methyl-N-(1-(naphthalen-1-yl)cyclopropyl)-2-oxo-2,3-dihydro-1H-benzo[d]imidazole-5-carboxamide]: 0.1 to 1 µM; for `Cc1cc2ccn(CC3CNC3)c2cc1C(=O)NC1(c2cccc3ccccc23)CC1` [Compound 239, 1-(Azetidin-3-ylmethyl)-5-methyl-N-(1-(naphthalen-1-yl)cyclopropyl)-1H-indole-6-carboxamide]: < 0.1 µM. `COCc1cc2cc(C)c(C(=O)NC3(c4cccc5ccccc45)CC3)cc2[nH]1` [Compound 240, 2-(Methoxymethyl)-5-methyl-N-(1-(naphthalen-1-yl)cyclopropyl)-1H-indole-6-carboxamide]: the IC50 fell in the range of 0.1 to 1 µM. The same measure for `Cc1cc2cc(CN)[nH]c2cc1C(=O)NCc1cccc2ccccc12` [Compound 241, 2-(Aminomethyl)-5-methyl-N-(naphthalen-1-ylmethyl)-1H-indole-6-carboxamide]: > 5 µM; for `Cc1ccc(N)cc1C(=O)NS(=O)(=O)c1cccc2ccccc12` [Compound 242, 5-Amino-2-methyl-N-(naphthalen-1-ylsulfonyl)benzamide]: > 5 µM; for `Cc1cc2c(cc1C(=O)NC1(c3cccc4ccccc34)CC1)NC(=O)C2(C)C` [Compound 243, 3,3,5-Trimethyl-N-(1-(naphthalen-1-yl)cyclopropyl)-2-oxoindoline-6-carboxamide]: 1 to 5 µM. The same measure for `Cc1cc2cc(CN)[nH]c2cc1C(=O)NC1(c2ccc(-c3ccccc3)cc2)CC1` [Compound 244, N-(1-([1,1′-Biphenyl]-4-yl)cyclopropyl)-2-(aminomethyl)-5-methyl-1H-indole-6-carboxamide]: > 5 µM; for `Cc1cc2sc(CN)nc2cc1C(=O)NC1(c2cccc3ccccc23)CC1` [Compound 245, 2-(Aminomethyl)-6-methyl-N-(1-(naphthalen-1-yl)cyclopropyl)benzo[d]thiazole-5-carboxamide]: < 0.1 µM. The same measure for `Cc1cc2cc(CN)[nH]c2cc1C(=O)NC1(c2ccccc2)CC1` [Compound 246, 2-(Aminomethyl)-5-methyl-N-(1-phenylcyclopropyl)-1H-indole-6-carboxamide]: > 5 µM; for `Cc1ccc(OCCNCC(F)(F)F)cc1C(=O)NC1(c2cccc3ccccc23)CC1` [Compound 247, 2-Methyl-N-(1-(naphthalen-1-yl)cyclopropyl)-5-(2-((2,2,2-trifluoroethyl)amino)ethoxy)benzamide]: 0.1 to 1 µM. Consider `Cc1cc2cc(CN)[nH]c2cc1C(=O)NC1(c2ccc3ccccc3c2)CC1` [Compound 248, 2-(Aminomethyl)-5-methyl-N-(1-(naphthalen-2-yl)cyclopropyl)-1H-indole-6-carboxamide], for which the IC50 fell in the range of 1 to 5 µM.

Regarding `Cc1cc2c(cc1C(=O)NC1(c3cccc4ccccc34)CC1)NC(=O)C2` [Compound 249, 5-Methyl-N-(1-(naphthalen-1-yl)cyclopropyl)-2-oxoindoline-6-carboxamide], the IC50 was 0.1 to 1 µM. The same measure for `Cc1ccc(OCCN(C)C)cc1C(=O)NC1(c2ccccc2Br)CC1` [Compound 251, N-(1-(2-Bromophenyl)cyclopropyl)-5-(2-(dimethylamino)ethoxy)-2-methylbenzamide]: 0.1 to 1 µM.

Take `Cc1ccc(OCCN(C)C)cc1C(=O)NC1(c2cccc(F)c2)CC1` [Compound 252, 5-(2-(Dimethylamino)ethoxy)-N-(1-(3-fluorophenyl)cyclopropyl)-2-methylbenzamide]: the IC50 was > 5 µM. The same measure for `Cc1ccc(C2(NC(=O)c3cc(OCCN(C)C)ccc3C)CC2)cc1` [Compound 253, 5-(2-(Dimethylamino)ethoxy)-2-methyl-N-(1-(p-tolyl)cyclopropyl)benzamide]: > 5 µM.

With `Cc1ccc(OCCN2CCCCC2)cc1C(=O)NC1(c2cccc3ccccc23)CC1` [Compound 254, 2-Methyl-N-(1-(naphthalen-1-yl)cyclopropyl)-5-(2-(piperidin-1-yl)ethoxy)benzamide], the IC50 was < 0.1 µM. As for `Cc1cccc(C2(NC(=O)c3cc(OCCN(C)C)ccc3C)CC2)c1` [Compound 255, 5-(2-(Dimethylamino)ethoxy)-2-methyl-N-(1-(m-tolyl)cyclopropyl)benzamide], the IC50 is > 5 µM. The same measure for `Cc1ccc(OCC2(N)CC2)cc1C(=O)NC1(c2cccc3ccccc23)CC1` [Compound 256]: < 0.1 µM. The same measure for `Cc1ccc(C(N)=O)cc1C(=O)NC1(c2cccc3ccccc23)CC1` [Compound 257]: 0.1 to 1 µM; for `Cc1ccc(OCCN(C)C)cc1C(=O)NC1(c2ccc(Br)cc2)CC1` [Compound 258, N-(1-(4-Bromophenyl)cyclopropyl)-5-(2-(dimethylamino)ethoxy)-2-methylbenzamide]: > 5 µM. The same measure for `Cc1ccc(OCCN(C)C)cc1C(=O)NC1(c2ccc(F)cc2)CC1` [Compound 259, 5-(2-(Dimethylamino)ethoxy)-N-(1-(4-fluorophenyl)cyclopropyl)-2-methylbenzamide]: > 5 µM; for `Cc1cc2cc(C3COCCN3)[nH]c2cc1C(=O)NC1(c2cccc3ccccc23)CC1` (centres unmarked) [Compound 260, 5-Methyl-2-(morpholin-3-yl)-N-(1-(naphthalen-1-yl)cyclopropyl)-1H-indole-6-carboxamide]: 0.1 to 1 µM. Take `Cc1ccc(OCCN(C)C)cc1C(=O)NC1(c2cccc(Br)c2)CC1` [Compound 261, N-(1-(3-Bromophenyl)cyclopropyl)-5-(2-(dimethylamino)ethoxy)-2-methylbenzamide]: the IC50 was 1 to 5 µM. The same measure for `Cc1cc2c(cc1C(=O)NC1(c3cccc4ccccc34)CC1)NCC2(C)C` [Compound 262, 3,3,5-Trimethyl-N-(1-(naphthalen-1-yl)cyclopropyl)indoline-6-carboxamide]: 0.1 to 1 µM; for `Cc1ccc(OCC2CCCN2)cc1C(=O)NC1(c2cccc3ccccc23)CC1` (centres unmarked) [Compound 263, 2-Methyl-N-(1-(naphthalen-1-yl)cyclopropyl)-5-(pyrrolidin-2-ylmethoxy)benzamide]: < 0.1 µM; for `Cc1ccc(OCCN(C)C)cc1C(=O)NC1(c2cccc(C3=CCCC3)c2)CC1` [Compound 264, N-(1-(3-(Cyclopent-1-en-1-yl)phenyl)cyclopropyl)-5-(2-(dimethylamino)ethoxy)-2-methylbenzamide]: 1 to 5 µM.

Take `Cc1ccc(OC2CC(N)C2)cc1C(=O)NC1(c2cccc3ccccc23)CC1` (centres unmarked) [Compound 265, 5-(3-Aminocyclobutoxy)-2-methyl-N-(1-(naphthalen-1-yl)cyclopropyl)benzamide]: the IC50 was 0.1 to 1 µM.

In the case of `Cc1ccc(OCCN(C)C)cc1C(=O)NC1(c2ccccc2-c2ccncc2)CC1` [Compound 266, 5-(2-(Dimethylamino)ethoxy)-2-methyl-N-(1-(2-(pyridin-4-yl)phenyl)cyclopropyl)benzamide], the IC50 is > 5 µM. Turning to `Cc1ccc(OCCN(C)C)cc1C(=O)NC1(c2ccccc2-c2ccccc2)CC1` [Compound 267, N-(1-([1,1′-Biphenyl]-2-yl)cyclopropyl)-5-(2-(dimethylamino)ethoxy)-2-methylbenzamide], the IC50 is > 5 µM. The same measure for `Cc1ccc(OC2CCCNC2)cc1C(=O)NC1(c2cccc3ccccc23)CC1` (centres unmarked) [Compound 268, 2-Methyl-N-(1-(naphthalen-1-yl)cyclopropyl)-5-(piperidin-3-yloxy)benzamide]: 0.1 to 1 µM.
